According to ChEMBL document CHEMBL6153125, “Harnessing the Magic Methyl Effect: Discovery of CLPP-2068 as a Novel HsClpP Activator for the Treatment of Diffuse Large B-Cell Lymphoma” (J Med Chem, 2025):
Each block holds one compound with its values, some of them ahead of it.

Experiments:
[1] = biological target: ATP-dependent Clp protease proteolytic subunit, mitochondrial (Homo sapiens, UniProt Q16740); assay: Activation of human ClpP extracted from Escherichia coli using Ac-WLA-AMC as substrate assessed as fluorescence signal measured after 10 mins incubation
Chain of ATP-dependent Clp protease proteolytic subunit, mitochondrial (Q16740 whole entry): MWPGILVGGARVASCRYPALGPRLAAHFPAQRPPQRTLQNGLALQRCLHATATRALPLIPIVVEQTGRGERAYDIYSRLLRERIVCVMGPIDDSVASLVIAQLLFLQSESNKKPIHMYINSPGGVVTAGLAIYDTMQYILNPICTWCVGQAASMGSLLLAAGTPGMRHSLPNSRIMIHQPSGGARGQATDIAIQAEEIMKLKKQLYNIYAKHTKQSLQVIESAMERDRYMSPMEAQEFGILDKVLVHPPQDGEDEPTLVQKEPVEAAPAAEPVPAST

OCI-Ly10 = assay: Antiproliferative activity against human OCI-Ly10 cells assessed as cell viability measured after 72 hrs incubation by CellTiter-based growth inhibition assay; details: OCI-Ly10, 72 h
[2] = biological target: Voltage-gated inwardly rectifying potassium channel KCNH2 (Homo sapiens, UniProt Q12809)
Chain of Voltage-gated inwardly rectifying potassium channel KCNH2 (Q12809 whole entry): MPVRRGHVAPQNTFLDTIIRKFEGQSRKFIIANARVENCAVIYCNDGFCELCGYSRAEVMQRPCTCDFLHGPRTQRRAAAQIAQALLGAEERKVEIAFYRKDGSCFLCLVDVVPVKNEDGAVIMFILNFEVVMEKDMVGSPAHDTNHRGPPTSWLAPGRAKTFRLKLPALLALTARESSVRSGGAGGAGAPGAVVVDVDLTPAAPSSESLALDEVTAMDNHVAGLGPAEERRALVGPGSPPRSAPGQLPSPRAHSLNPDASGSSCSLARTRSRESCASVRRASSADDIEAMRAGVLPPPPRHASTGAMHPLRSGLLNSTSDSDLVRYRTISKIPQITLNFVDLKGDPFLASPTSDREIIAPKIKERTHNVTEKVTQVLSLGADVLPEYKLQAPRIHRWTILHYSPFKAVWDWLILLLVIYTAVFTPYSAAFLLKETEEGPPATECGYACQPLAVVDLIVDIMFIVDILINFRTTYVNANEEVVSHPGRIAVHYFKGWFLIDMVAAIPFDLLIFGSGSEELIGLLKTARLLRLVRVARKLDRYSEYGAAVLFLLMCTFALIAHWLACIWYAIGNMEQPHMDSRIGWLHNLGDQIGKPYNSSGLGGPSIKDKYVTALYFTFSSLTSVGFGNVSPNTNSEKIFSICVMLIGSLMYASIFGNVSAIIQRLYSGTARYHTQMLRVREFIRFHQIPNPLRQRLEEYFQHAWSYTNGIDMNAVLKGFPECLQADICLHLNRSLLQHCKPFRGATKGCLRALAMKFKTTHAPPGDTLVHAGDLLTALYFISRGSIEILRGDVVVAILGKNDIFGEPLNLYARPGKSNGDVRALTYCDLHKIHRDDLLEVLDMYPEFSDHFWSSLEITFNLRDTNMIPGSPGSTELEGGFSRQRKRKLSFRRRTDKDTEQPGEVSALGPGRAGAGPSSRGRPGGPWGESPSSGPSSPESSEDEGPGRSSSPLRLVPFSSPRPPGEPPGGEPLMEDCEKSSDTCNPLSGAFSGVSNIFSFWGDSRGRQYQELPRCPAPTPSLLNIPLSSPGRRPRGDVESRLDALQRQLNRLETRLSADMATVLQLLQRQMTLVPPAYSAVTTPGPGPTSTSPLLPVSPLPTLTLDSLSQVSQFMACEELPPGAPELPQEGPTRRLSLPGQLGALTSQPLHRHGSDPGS

SU-DHL-6 = assay: Antiproliferative activity against human SU-DHL-6 cells assessed as cell viability measured after 72 hrs incubation by CellTiter-based growth inhibition assay; details: SU-DHL-6, 72 h
OCI-Ly3 = assay: Antiproliferative activity against human OCI-Ly3 cells assessed as cell viability measured after 72 hrs incubation by CellTiter-based growth inhibition assay; details: OCI-Ly3, 72 h
SUD4 = assay: Antiproliferative activity against human SU-DHL-4 cells assessed as cell viability measured after 72 hrs incubation by CellTiter-based growth inhibition assay; details: SU-DHL-4, 72 h
SU-DHL-2 = assay: Antiproliferative activity against human SU-DHL-2 cells assessed as cell viability measured after 72 hrs incubation by CellTiter-based growth inhibition assay; details: SU-DHL-2, 72 h
Toledo = assay: Antiproliferative activity against human Toledo cells assessed as cell viability measured after 72 hrs incubation by CellTiter-based growth inhibition assay
[3] = Half life in ICR mouse at 10 mg/kg, po measured upto 24 hrs by LC-MS/MS analysis; details: in vivo
[4] = MRT in ICR mouse at 10 mg/kg, po measured upto 24 hrs by LC-MS/MS analysis; details: in vivo
[5] = Half life in ICR mouse at 2 mg/kg, iv measured upto 24 hrs by LC-MS/MS analysis; details: in vivo
[6] = AUCt in ICR mouse at 2 mg/kg, iv measured upto 24 hrs by LC-MS/MS analysis; details: in vivo
[7] = Clearance in ICR mouse at 2 mg/kg, iv measured upto 24 hrs by LC-MS/MS analysis; details: in vivo
[8] = MRT in ICR mouse at 2 mg/kg, iv measured upto 24 hrs by LC-MS/MS analysis; details: in vivo
[9] = Volume of distribution at steady state in ICR mouse at 2 mg/kg measured upto 24 hrs by LC-MS/MS analysis; details: in vivo, iv
[10] = Metabolic stability in rat liver microsomes assessed as half life
[11] = Metabolic stability in human liver microsomes assessed as half life
[12] = Metabolic stability in rat liver microsomes assessed as intrinsic clearance
[13] = Metabolic stability in human liver microsomes assessed as intrinsic clearance
[14] = Metabolic stability in rat liver microsomes assessed as apparent intrinsic clearance
[15] = Metabolic stability in human liver microsomes assessed as apparent intrinsic clearance
[16] = Metabolic stability in rat liver microsomes assessed as hepatic clearance
[17] = Metabolic stability in human liver microsomes assessed as hepatic clearance
[18] = Metabolic stability in rat liver microsomes assessed as hepatic extraction
[19] = Metabolic stability in human liver microsomes assessed as hepatic extraction
in vivo [20] = details: ICR, mouse, po, 10 mg/kg
Description: Tmax in ICR mouse at 10 mg/kg, po measured upto 24 hrs by LC-MS/MS analysis

in vivo [21] = details: ICR, mouse, po, 10 mg/kg; remark: listed apart in the source
Description: Cmax in ICR mouse at 10 mg/kg, po measured upto 24 hrs by LC-MS/MS analysis

in vivo [22] = details: ICR, mouse, po, 10 mg/kg; remark: listed apart in the source
Description: AUC (0 to t) in ICR mouse at 10 mg/kg, po measured upto 24 hrs by LC-MS/MS analysis

in vivo [23] = details: ICR, mouse, po, 10 mg/kg; remark: listed apart in the source
Description: Oral bioavailability in ICR mouse at 10 mg/kg measured upto 24 hrs by LC-MS/MS analysis

Bcr/Abl fusion protein = Bcr/Abl fusion protein (Homo sapiens, UniProt P00519); assay: Inhibition of Bcr-Abl (unknown origin)
Chain of Bcr/Abl fusion protein (P00519 whole entry, the tested form may be a part): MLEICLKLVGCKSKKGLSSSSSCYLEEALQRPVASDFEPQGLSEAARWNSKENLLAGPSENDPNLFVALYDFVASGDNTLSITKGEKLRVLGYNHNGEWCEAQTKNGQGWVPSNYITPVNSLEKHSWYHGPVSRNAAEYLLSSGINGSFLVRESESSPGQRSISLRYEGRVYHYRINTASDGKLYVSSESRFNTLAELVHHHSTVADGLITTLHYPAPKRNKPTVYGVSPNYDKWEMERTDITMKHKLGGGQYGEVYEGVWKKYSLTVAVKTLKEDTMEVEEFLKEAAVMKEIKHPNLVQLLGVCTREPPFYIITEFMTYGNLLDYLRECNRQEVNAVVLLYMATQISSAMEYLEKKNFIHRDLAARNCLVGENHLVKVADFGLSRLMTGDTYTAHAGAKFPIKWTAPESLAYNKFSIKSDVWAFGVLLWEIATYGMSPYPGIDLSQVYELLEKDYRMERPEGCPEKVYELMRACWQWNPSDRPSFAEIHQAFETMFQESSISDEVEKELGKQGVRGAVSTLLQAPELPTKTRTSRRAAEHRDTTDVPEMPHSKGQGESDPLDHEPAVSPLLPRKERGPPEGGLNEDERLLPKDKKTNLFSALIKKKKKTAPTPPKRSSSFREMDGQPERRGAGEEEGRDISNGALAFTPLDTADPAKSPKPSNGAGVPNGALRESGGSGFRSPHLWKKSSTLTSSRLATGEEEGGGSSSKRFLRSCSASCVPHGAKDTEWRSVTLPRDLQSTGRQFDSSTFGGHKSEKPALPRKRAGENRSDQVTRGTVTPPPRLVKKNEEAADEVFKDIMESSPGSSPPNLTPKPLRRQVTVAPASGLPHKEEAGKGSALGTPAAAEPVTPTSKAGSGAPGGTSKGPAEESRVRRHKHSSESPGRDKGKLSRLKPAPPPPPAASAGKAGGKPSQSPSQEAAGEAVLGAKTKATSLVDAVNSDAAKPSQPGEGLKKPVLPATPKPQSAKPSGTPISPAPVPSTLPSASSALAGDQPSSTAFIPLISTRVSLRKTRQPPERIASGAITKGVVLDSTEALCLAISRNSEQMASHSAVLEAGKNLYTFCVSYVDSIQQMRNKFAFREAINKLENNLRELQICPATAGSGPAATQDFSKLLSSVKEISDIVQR
Chain of Bcr/Abl fusion protein (P11274 whole entry, further chain, the tested form may be a part): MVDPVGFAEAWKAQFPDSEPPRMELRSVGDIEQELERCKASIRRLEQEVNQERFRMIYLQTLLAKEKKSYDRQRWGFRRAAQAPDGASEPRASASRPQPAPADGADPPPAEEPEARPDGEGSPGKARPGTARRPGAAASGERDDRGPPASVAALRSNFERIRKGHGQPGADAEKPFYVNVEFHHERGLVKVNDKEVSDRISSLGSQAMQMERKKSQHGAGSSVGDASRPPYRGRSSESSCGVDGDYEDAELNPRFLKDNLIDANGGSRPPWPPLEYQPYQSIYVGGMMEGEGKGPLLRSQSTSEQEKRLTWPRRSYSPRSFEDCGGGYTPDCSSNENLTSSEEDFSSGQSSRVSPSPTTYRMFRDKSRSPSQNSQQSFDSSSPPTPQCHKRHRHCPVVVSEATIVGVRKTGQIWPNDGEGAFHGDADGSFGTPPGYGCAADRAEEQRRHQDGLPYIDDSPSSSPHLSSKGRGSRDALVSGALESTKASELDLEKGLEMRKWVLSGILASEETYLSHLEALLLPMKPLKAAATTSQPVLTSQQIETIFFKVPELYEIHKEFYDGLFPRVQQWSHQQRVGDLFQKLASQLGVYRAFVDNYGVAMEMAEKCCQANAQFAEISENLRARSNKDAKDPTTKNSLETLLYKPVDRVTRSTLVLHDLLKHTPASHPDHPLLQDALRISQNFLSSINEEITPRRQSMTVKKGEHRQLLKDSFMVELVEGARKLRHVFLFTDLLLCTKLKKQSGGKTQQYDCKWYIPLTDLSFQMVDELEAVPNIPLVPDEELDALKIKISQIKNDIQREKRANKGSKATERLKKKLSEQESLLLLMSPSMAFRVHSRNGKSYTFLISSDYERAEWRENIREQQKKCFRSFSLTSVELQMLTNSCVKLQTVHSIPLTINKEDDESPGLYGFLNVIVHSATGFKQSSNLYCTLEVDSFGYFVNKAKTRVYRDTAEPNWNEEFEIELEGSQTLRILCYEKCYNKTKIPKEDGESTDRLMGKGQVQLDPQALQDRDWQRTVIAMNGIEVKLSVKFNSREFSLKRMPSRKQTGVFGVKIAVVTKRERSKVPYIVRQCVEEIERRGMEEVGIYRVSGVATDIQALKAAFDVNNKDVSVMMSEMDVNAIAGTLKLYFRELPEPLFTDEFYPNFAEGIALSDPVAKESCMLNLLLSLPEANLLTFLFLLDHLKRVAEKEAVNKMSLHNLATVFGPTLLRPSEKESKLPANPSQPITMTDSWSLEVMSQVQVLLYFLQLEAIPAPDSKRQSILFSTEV

[24] = Half life in ICR mouse at 15 mg/kg, po measured upto 24 hrs by LC-MS/MS analysis; details: in vivo
[25] = MRT in ICR mouse at 15 mg/kg, po measured upto 24 hrs by LC-MS/MS analysis; details: in vivo
[26] = Half life in ICR mouse at 5 mg/kg, iv measured upto 24 hrs by LC-MS/MS analysis; details: in vivo
[27] = Clearance in ICR mouse at 5 mg/kg, iv measured upto 24 hrs by LC-MS/MS analysis; details: in vivo
[28] = MRT in ICR mouse at 5 mg/kg, iv measured upto 24 hrs by LC-MS/MS analysis; details: in vivo
in vivo [29] = details: ICR, mouse, po, 15 mg/kg
Description: Tmax in ICR mouse at 15 mg/kg, po measured upto 24 hrs by LC-MS/MS analysis

in vivo [30] = details: ICR, mouse, po, 15 mg/kg; remark: listed apart in the source
Description: Cmax in ICR mouse at 15 mg/kg, po measured upto 24 hrs by LC-MS/MS analysis

in vivo [31] = details: ICR, mouse, po, 15 mg/kg; remark: listed apart in the source
Description: AUC (0 to t) in ICR mouse at 15 mg/kg, po measured upto 24 hrs by LC-MS/MS analysis

in vivo [32] = details: ICR, mouse, po, 15 mg/kg; remark: listed apart in the source
Description: Oral bioavailability in ICR mouse at 15 mg/kg measured upto 24 hrs by LC-MS/MS analysis

in vivo [33] = details: ICR, mouse, iv, 5 mg/kg

SMILES: C[C@@H]1Cc2nc(NCc3ccc(C(F)(F)F)cc3)[nH]c(=O)c2CN1Cc1cccnc1
EC50 [1]: 3380 nM
IC50 (OCI-Ly10): 7840 nM

SMILES: O=c1nc2n(c3c1CN(Cc1ccccc1)CC3)CCN2Cc1ccc(F)c(Br)c1
IC50 [2]: 1520 nM

SMILES: C[C@@H]1Cc2nc(NCc3ccc(C(F)(F)F)cc3)[nH]c(=O)c2CN1Cc1cccc2ccccc12
EC50 [1]: 761 nM
IC50 (OCI-Ly10): 8210 nM

SMILES: C[C@@H]1Cc2nc(NCC3CC3)[nH]c(=O)c2CN1Cc1cccc(C#N)c1
EC50 [1]: 1430 nM
IC50 (OCI-Ly10): 4030 nM

SMILES: C[C@@H]1Cc2nc(NCc3ccc(C(F)(F)F)cc3)[nH]c(=O)c2CN1Cc1ccc(C#N)cc1
EC50 [1]: 1360 nM
IC50 (OCI-Ly10): 6040 nM

SMILES: O=C(Nc1cccc(Nc2nccc(-c3cccnc3)n2)c1)c1ccccc1
IC50 (Bcr/Abl fusion protein): 200 nM

SMILES: C[C@@H]1Cc2nc(N3CCC(c4ccccc4)C3)[nH]c(=O)c2CN1Cc1cccc(C#N)c1 (some centres not stated)
EC50 [1]: 707 nM
IC50 (OCI-Ly10): 5750 nM

SMILES: Cc1ccccc1CN1C(=O)C2=C(CCN(Cc3ccccc3)C2)N2CCN=C12.Cl.Cl.O
half-life at 24 h [24]: 63 min
MRT at 24 h [25]: 1.46 h
half-life at 24 h [26]: 54.6 min
clearance at 24 h [27]: 42.7 mL/min/kg
MRT at 24 h [28]: 51.6 min
half-life [11]: 558 min
CLint scaled [13]: 187 mL/min/kg
Tmax at 24 h (in vivo [29]): 25.2 min
Cmax at 24 h (in vivo [30]): 566 ng/mL
AUC(0-t) at 24 h (in vivo [31]): 894 ng·h/mL
bioavailability at 24 h (in vivo [32]): 15.2%
AUC(0-t) at 24 h (in vivo [33]): 1960 ng·h/mL

Continued, in another order:

EC50 [1]: 62.8 nM
IC50 (OCI-Ly10): 50.5 nM
SMILES: C[C@@H]1Cc2nc(NCc3ccc(C(F)(F)F)cc3)[nH]c(=O)c2CN1Cc1cccc(Br)c1

EC50 [1]: 65.1 nM
SMILES: C[C@@H]1Cc2nc(NCc3ccc(C(F)(F)F)cc3)[nH]c(=O)c2CN1Cc1ccccc1

EC50 [1]: 156 nM
IC50 (SU-DHL-6): 91.8 nM
IC50 (OCI-Ly3): 148 nM
IC50 (SU-DHL-2): 222 nM
half-life at 24 h [3]: 225 min
MRT at 24 h [4]: 4.65 h
half-life at 24 h [5]: 121 min
AUC(0-t) at 24 h [6]: 1530 ng·h/mL
clearance at 24 h [7]: 21.8 mL/min/kg
MRT at 24 h [8]: 1.72 h
Vd at 24 h [9]: 2.25 L/kg
half-life [10]: 426 min
half-life [11]: 612 min
CLint scaled [12]: 487 mL/min/kg
CLint scaled [13]: 338 mL/min/kg
CLint scaled [14]: 876 mL/min/kg
CLint scaled [15]: 396 mL/min/kg
CLhep predicted [16]: 51.9 mL/min/kg
CLhep predicted [17]: 19.7 mL/min/kg
hepatic extraction ratio [18]: 0.941
hepatic extraction ratio [19]: 0.95
Tmax at 24 h (in vivo [20]): 25.2 min
Cmax at 24 h (in vivo [21]): 873 ng/mL
AUC(0-t) at 24 h (in vivo [22]): 3350 ng·h/mL
bioavailability at 24 h (in vivo [23]): 43.7%
SMILES: O=C1C2=C(CCN(Cc3ccccc3)C2)N2CCN=C2N1Cc1ccc(C(F)(F)F)cc1
IC50 (SUD4): 250 nM
IC50 (Toledo): > 250 nM
IC50 [2]: > 40000 nM

EC50 [1]: 43.4 nM
IC50 (OCI-Ly10): 45 nM
SMILES: Cc1ccccc1CNc1nc2c(c(=O)[nH]1)CN(Cc1cccc(C#N)c1)[C@H](C)C2

EC50 [1]: 490 nM
IC50 (OCI-Ly10): 1080 nM
SMILES: C[C@@H]1Cc2nc(NCc3ccc(C(F)(F)F)cc3)[nH]c(=O)c2CN1Cc1ccc(F)cc1

EC50 [1]: 67.9 nM
IC50 (OCI-Ly10): 105 nM
SMILES: C[C@@H]1Cc2nc(NCc3cccc4ccccc34)[nH]c(=O)c2CN1Cc1cccc(C#N)c1

EC50 [1]: 26.9 nM
IC50 (OCI-Ly10): 117 nM
SMILES: Cc1ccc(CNc2nc3c(c(=O)[nH]2)CN(Cc2cccc(C#N)c2)[C@H](C)C3)cc1

EC50 [1]: 151 nM
IC50 (OCI-Ly10): 110 nM
SMILES: C[C@@H]1Cc2nc(NCc3ccc(C(F)(F)F)cc3)[nH]c(=O)c2CN1Cc1cccc(Cl)c1

EC50 [1]: 59.2 nM
IC50 (OCI-Ly10): 13.5 nM
SMILES: C[C@@H]1Cc2nc(NCc3ccc(Cl)cc3)[nH]c(=O)c2CN1Cc1cccc(C#N)c1
